The record followed here is patent US20260070902A1, “SULFONYL DERIVATIVES AS CCR6 INHIBITORS” (Hoffmann-La Roche Inc., priority 2022, published 2026).

For assay [1], the target named is T1, human CCR6 (Homo sapiens, UniProt P51684).
T1 sequence (P51684 1-374): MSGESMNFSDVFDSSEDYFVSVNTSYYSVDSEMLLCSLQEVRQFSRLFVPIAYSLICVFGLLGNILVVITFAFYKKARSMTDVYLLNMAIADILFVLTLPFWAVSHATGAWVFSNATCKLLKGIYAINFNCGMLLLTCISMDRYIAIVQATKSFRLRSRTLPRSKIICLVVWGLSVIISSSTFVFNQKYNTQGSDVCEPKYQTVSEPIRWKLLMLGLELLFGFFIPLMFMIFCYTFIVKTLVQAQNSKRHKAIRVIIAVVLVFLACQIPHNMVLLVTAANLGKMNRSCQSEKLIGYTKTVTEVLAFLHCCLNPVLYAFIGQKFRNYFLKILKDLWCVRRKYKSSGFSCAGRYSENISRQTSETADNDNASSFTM
Put plainly: Human CCR6-CRE reporter assay. The conditions noted are these: relative -Log IC50; 293FT cells transfected with human CCR6 and CRE-luciferase reporter; 6 μM Forskolin, 6 nM CCL20; 5 h. The assay is classed as cell-based. Set-up: The second construct contained the open reading frame of human CCR6 in the pUNO1 backbone; host or cells: 293FT cells. The procedure, abridged: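 293FT cells transiently co-transfected with human CCR6 and a CRE-luc2P reporter, used 48 h later. Compounds incubated with cells in medium containing 6 μM Forskolin and 6 nM CCL20 (assay-medium levels), 0.1% DMSO final, 5 h at 37° C; luminescence read, relative −Log IC50 from four-parameter fit.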
(A reporter such as luciferase makes a cellular process visible.)

Assay [2] has as its target T1, human CCR6. Put plainly: CHO-K1 CCR6 chemotaxis assay towards CCL20. The assay is classed as cell-based. The settings on record: relative -Log IC50; CHO-K1 cells overexpressing human CCR6; migration towards 100 ng/ml CCL20; 4 h. The source says: CHO-K1 CCR6 Chemotaxis Assay Towards CCL20
Cells overexpressing human CCR6 were used in the chemotaxis assay (DiscoverX, cAMP Hunter™ CHO-K1 CCR6 Gi Cell Line). Growth medium of these cells consisted of DMEM/F12, non-essential Amino acids (1×NEAA, Gibco 11140050), 10% FBS and 1× pen/strep (Gibco 15140). For the chemotaxis assay, Corning Transwell plates were used with a pore size of 8 m (Corning 351164). Cells were harvested using trypsin and diluted to 4*10^6 cells/ml in chemotaxis medium (DMEM, 0.25% BSA, pen/strep). Compounds were four-fold serially diluted in DMSO. Further dilutions were made in chemotaxis medium. Cells were incubated with test compounds for 30 min at 37° C. prior to initiation of the assay (2*10^6 cells/ml). Final DMSO concentration in the assay was 0.2%. Wells of the Transwell plates were filled with 200 μl chemotaxis medium containing 100 ng/ml CCL20 (R&D systems 360-MP). 50 μl of the cell/compound suspension was added to the inserts of the Transwell plates (100,000 cells/insert). The Transwell plates were placed in an incubator at 37° C., 5% CO2 for 4 h. After 4 h, the number of migrated cells was quantified using CellTiter Glo (Promega). Percentage inhibition values were calculated based on the low and high signal obtained with 0.2% DMSO in chemotaxis medium without and with CCL20, respectively. The relative −Log IC50 was determined with GraphPad Prism 9 using a four-parameter dose-response model.

For `CC(C)c1cnc2ccc(-c3ccc(S(=O)(=O)N4CCC(Nc5ccc(S(F)(F)(F)(F)F)cc5)CC4)cc3)cn12` [Example 29, N-[4-(pentafluoro-λ^6-sulfanyl)phenyl]-1-{4-[3-(propan-2-yl)imidazo[1,2-a]pyridin-6-yl]benzenesulfonyl}piperidin-4-amine], the results for the IC50 at human CCR6 [1] and against human CCR6 [2] were 39.8 nM and 50.1 nM, respectively.
Consider `COCc1nnc2ccc(-c3ccc(S(=O)(=O)N4CCC(Nc5ccc(S(F)(F)(F)(F)F)cc5)CC4)cc3)cn12` [Example 30, 1-{4-[3-(methoxymethyl)-[1,2,4]triazolo[4,3-a]pyridin-6-yl]benzenesulfonyl}-N-[4-(pentafluoro-λ^6-sulfanyl)phenyl]piperidin-4-amine], for which the figures for the IC50 at human CCR6 [1] and at human CCR6 [2] were 50.1 nM and 251 nM, respectively.
Consider `N#Cc1cnc2ccc(-c3ccc(S(=O)(=O)[C@H]4CC[C@H](Nc5ccc(S(F)(F)(F)(F)F)cc5)CC4)cc3)cn12` [Example 33, 6-(4-{[trans-4-{[4-(pentafluoro-λ^6-sulfanyl)phenyl]Amino}cyclohexyl]sulfonyl}phenyl)imidazo[1,2-a]pyridine-3-carbonitrile], for which the IC50 at human CCR6 [1] was 63.1 nM; at human CCR6 [2] it was 7.94 nM.
Turning to `O=S(=O)(c1ccc(-c2ccc3nncn3c2)cc1)[C@H]1CC[C@H](Nc2ccc(S(F)(F)(F)(F)F)cc2)CC1` [Example 36, 4-(pentafluoro-λ^6-sulfanyl)-N-[trans-4-(4-{[1,2,4]triazolo[4,3-a]pyridin-6-yl}benzenesulfonyl)cyclohexyl]aniline], the figures for the IC50 at human CCR6 [1] and against human CCR6 [2] were 126 nM and 1580 nM, respectively.
As for `NC(=O)c1n[nH]c2ccc(-c3ccc(S(=O)(=O)[C@H]4CC[C@H](Nc5ccc(S(F)(F)(F)(F)F)cc5)CC4)cc3)cc12` [Example 37, 5-(4-{[trans-4-{[4-(pentafluoro-λ^6-sulfanyl)phenyl]Amino}cyclohexyl]sulfonyl}phenyl)-1H-indazole-3-carboxamide], the figures for the IC50 against human CCR6 [1] and at human CCR6 [2] were 63.1 nM and 3.98 nM, respectively.
Turning to `NC(=O)c1nnc2ccc(-c3ccc(S(=O)(=O)[C@H]4CC[C@H](Nc5ccc(S(F)(F)(F)(F)F)cc5)CC4)cc3)cn12` [Example 39, 6-(4-{[trans-4-{[4-(pentafluoro-λ^6-sulfanyl)phenyl]Amino}cyclohexyl]sulfonyl}phenyl)-[1,2,4]triazolo[4,3-a]pyridine-3-carboxamide], the IC50 was 251 nM against human CCR6 [1] and 79.4 nM against human CCR6 [2].
As to `N#Cc1nnc2ccc(-c3ccc(S(=O)(=O)[C@H]4CC[C@H](Nc5ccc(S(F)(F)(F)(F)F)cc5)CC4)cc3)cn12` [Example 42, 6-(4-{[trans-4-{[4-(pentafluoro-λ^6-sulfanyl)phenyl]Amino}cyclohexyl]sulfonyl}phenyl)-[1,2,4]triazolo[4,3-a]pyridine-3-carbonitrile], the IC50 was 251 nM on human CCR6 [1] and 15.8 nM on human CCR6 [2].
Taken in the same sequence, the figures for `Cc1cn2cc(-c3ccc(S(=O)(=O)[C@H]4CC[C@H](Nc5ccc(S(F)(F)(F)(F)F)cc5)CC4)cc3)ncc2n1` [Example 43, 4-(pentafluoro-λ^6-sulfanyl)-N-[trans-4-(4-{2-methylimidazo[1,2-a]pyrazin-6-yl}benzenesulfonyl)cyclohexyl]aniline] were 158 nM and 316 nM.
As to `O=S(=O)(c1ccc(-c2cn3ccnc3cn2)cc1)[C@H]1CC[C@H](Nc2ccc(S(F)(F)(F)(F)F)cc2)CC1` [Example 44, 4-(pentafluoro-λ^6-sulfanyl)-N-[trans-4-(4-{imidazo[1,2-a]pyrazin-6-yl}benzenesulfonyl)cyclohexyl]aniline], the IC50 against human CCR6 [1] and on human CCR6 [2] was 158 nM in each case.
As to `CNC(=O)c1ccc(-c2ccc(S(=O)(=O)[C@H]3CC[C@H](Nc4ccc(S(F)(F)(F)(F)F)cc4)CC3)cc2)nc1` [Example 47, N-methyl-6-(4-{[trans-4-{[4-(pentafluoro-λ^6-sulfanyl)phenyl]Amino}cyclohexyl]sulfonyl}phenyl)pyridine-3-carboxamide], the IC50 is 63.1 nM at human CCR6 [1] and 794 nM against human CCR6 [2].

As usually defined, the IC50 is the midpoint of a concentration-inhibition curve.
